In patent US20100022542A1, “COMPOUNDS EXHIBITING THROMBOPOIETIN RECEPTOR AGONISM” (Shionogi & Co., Ltd., priority 2000, published 2010):

target: T1, human TPO receptor (hTPOR) (Homo sapiens, UniProt P40238); experiment: Proliferation of TPO dependent BaF/hTPOR cells, WST-1, thrombopoietic activity ED50 (Test Example 3); assay type: cell-based; conditions: 20 h incubation then WST-1 4 h, absorbance at 450 nm
T1 construct: expressed in transfected cells; host or cells: BaF-B03 (murine IL-3 dependent cell line)
T1 sequence (P40238 26-635): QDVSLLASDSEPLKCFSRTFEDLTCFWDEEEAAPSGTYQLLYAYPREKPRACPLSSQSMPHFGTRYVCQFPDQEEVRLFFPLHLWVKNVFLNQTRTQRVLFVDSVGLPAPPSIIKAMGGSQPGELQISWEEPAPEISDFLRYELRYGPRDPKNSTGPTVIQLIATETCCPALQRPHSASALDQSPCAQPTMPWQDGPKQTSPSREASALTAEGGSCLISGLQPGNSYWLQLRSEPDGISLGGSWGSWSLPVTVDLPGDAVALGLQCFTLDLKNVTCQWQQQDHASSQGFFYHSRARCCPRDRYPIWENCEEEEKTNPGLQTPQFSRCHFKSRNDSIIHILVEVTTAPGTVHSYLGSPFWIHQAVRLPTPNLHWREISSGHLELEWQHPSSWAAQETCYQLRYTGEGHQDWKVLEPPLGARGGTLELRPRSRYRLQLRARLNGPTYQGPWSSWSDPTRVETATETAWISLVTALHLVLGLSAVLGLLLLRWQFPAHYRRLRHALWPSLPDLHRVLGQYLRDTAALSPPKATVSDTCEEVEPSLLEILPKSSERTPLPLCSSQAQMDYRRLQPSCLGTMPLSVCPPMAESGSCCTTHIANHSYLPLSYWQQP
Text: FIG. 2: The chart represents proliferation of the human TPO dependent cells bearing human TPO receptors by the present invention compound, wherein the x-axis is concentration of the present invention compound, and the y-axis is the absorbance as an indicator of cell proliferation. Open circles indicate a response of human TPO, and closed circles indicate a response of the compound (B-1).
The TPO dependent BaF/hTPOR cell line which was established by introducing human TPO receptor (hTPOR) into BaF-B03 cells according to Collins et al (J. Cell. Physiol., 137:293-298 (1988)) was used to test the thrombopoietic activity of the present compound. The DNA sequences and encoded peptide sequences for human hTPOR have been described by Vigon et al (Proc. Natl. Acad. Sci. USA, 89:5640-5644 (1992)). TPO dose not have any ability to support proliferation of interleukin-3 dependent parental cell line BaF-B03. BAF/hTPOR cells were maintained in RPMI medium and WEHI-3B conditioned medium as a source of murine interleukin-3 (IL-3). These cells were washed and resuspended in RPMI medium without a source of murine IL-3 and seeded into each well of 96-well microtiter plates at a density of 5×10^4 cells per well in the absence or presence of various concentration of hTPO or the present compound. After incubation at 37° C. for 20 hours in the 5% CO2 incubator, 10% WST-1 reagent (Takara Biomedicals, Japan) was added to each wells and the cells were further incubated for 4 hours. Effect of the present compound on the growth of BAF/mTPOR cell line which was established by introducing murine TPO receptor (mTPOR) into BAF-B03 cells is shown in FIG. 3. Table 8 exemplifies the ED50 for tested compounds of the present invention, wherein the ED50 is the half concentration of the concentration showing the maximum thrombopoietic activity.

Structure (SMILES) | EC50
NC(=O)/C=C/c1ccc(C(=O)Nc2nc(-c3ccc(Cl)c(Cl)c3)cs2)cc1 [Compound B-2] | 257 nM
CCCNC(=O)C(C)=Cc1ccc(C(=O)Nc2nc(-c3ccc(Cl)c(Cl)c3)cs2)cc1 [Compound B-7] | 59 nM
CC(=Cc1ccc(C(=O)Nc2nc(-c3ccc(Cl)c(Cl)c3)cs2)cc1)C(=O)N1CCOCC1 [Compound B-8] | 378 nM
C/C(=C\c1ccc(C(=O)Nc2nc(-c3ccc(Cl)c(Cl)c3)cs2)cc1)C(=O)NCc1ccccc1 [Compound B-9] | 82 nM
C/C(=C\c1ccc(C(=O)Nc2nc(-c3ccc(Cl)c(Cl)c3)cs2)cc1)C(=O)Nc1nccs1 [Compound B-11] | 236 nM
C/C(=C\c1ccc(C(=O)Nc2nc(-c3ccc(Cl)c(Cl)c3)cs2)cc1)C(=O)Nc1cccnc1 [Compound B-12] | 207 nM
C/C(=C\c1ccc(C(=O)Nc2nc(-c3ccc(Cl)c(Cl)c3)cs2)cc1)C(=O)NCc1ccc(C(F)(F)F)cc1 [Compound B-13] | 213 nM
C/C(=C\c1ccc(C(=O)Nc2nc(-c3ccc(Cl)c(Cl)c3)cs2)cc1)C(=O)NCc1ccc(F)cc1 [Compound B-14] | 305 nM
C/C(=C\c1ccc(C(=O)Nc2nc(-c3ccc(Cl)c(Cl)c3)cs2)cc1)C(=O)NCc1cccs1 [Compound B-15] | 197 nM
C/C(=C\c1ccc(C(=O)Nc2nc(-c3ccc(Cl)c(Cl)c3)cs2)cc1)C(=O)NCc1ccco1 [Compound B-16] | 182 nM
CCNC(=O)/C(=C/c1ccc(C(=O)Nc2nc(-c3ccc(Cl)c(Cl)c3)cs2)cc1)CC [Compound B-19] | 150 nM
CC/C(=C\c1ccc(C(=O)Nc2nc(-c3ccc(Cl)c(Cl)c3)cs2)cc1)C(=O)NCc1ccccc1 [Compound B-20] | 425 nM
C/C(=C\c1ccc(C(=O)Nc2nc(-c3ccc(Cl)c(Cl)c3)cs2)cc1)C(=O)NCCN(C)C [Compound B-27] | 707 nM
C/C(=C\c1ccc(C(=O)Nc2nc(-c3ccc(Cl)c(Cl)c3)cs2)cc1)C(=O)NN(C)C [Compound B-29] | 181 nM
C/C(=C\c1ccc(C(=O)Nc2nc(-c3ccc(Cl)c(Cl)c3)cs2)cc1)C(=O)Nc1ccccc1 [Compound B-30] | 177 nM
CSCCCNC(=O)/C(C)=C/c1ccc(C(=O)Nc2nc(-c3ccc(Cl)c(Cl)c3)cs2)cc1 [Compound B-32] | 123 nM
C/C(=C\c1ccc(C(=O)Nc2nc(-c3ccc(Cl)c(Cl)c3)cs2)cc1)C(=O)NC(C)c1ccccc1 (stereo not shown) [Compound B-33] | 372 nM
C/C(=C\c1ccc(C(=O)Nc2nc(-c3ccc(Cl)c(Cl)c3)cs2)cc1)C(=O)NC[Si](C)(C)C [Compound B-34] | 398 nM
C/C(=C\c1ccc(C(=O)Nc2nc(-c3ccc(Cl)c(Cl)c3)cs2)cc1)C(=O)NC1CCCC1 [Compound B-38] | 239 nM
C/C(=C\c1ccc(C(=O)Nc2nc(-c3ccc(Cl)c(Cl)c3)cs2)cc1)C(=O)NC(C)(C)C [Compound B-39] | 729 nM
C#CCNC(=O)/C(C)=C/c1ccc(C(=O)Nc2nc(-c3ccc(Cl)c(Cl)c3)cs2)cc1 [Compound B-40] | 201 nM
C=CCNC(=O)/C(C)=C/c1ccc(C(=O)Nc2nc(-c3ccc(Cl)c(Cl)c3)cs2)cc1 [Compound B-41] | 190 nM
COCCNC(=O)/C(C)=C/c1ccc(C(=O)Nc2nc(-c3ccc(Cl)c(Cl)c3)cs2)cc1 [Compound B-42] | 236 nM
CC(=Cc1ccc(C(=O)Nc2nc(-c3ccc(Cl)c(Cl)c3)cs2)cc1)c1ncc[nH]1 [Compound D-1] | 276 nM
CC(=Cc1ccc(C(=O)Nc2nc(-c3ccc(Cl)c(Cl)c3)cs2)cc1)S(=O)(=O)N(C)C [Compound F-1] | 174 nM
CC(=Cc1ccc(C(=O)Nc2nc(-c3ccc(Cl)c(Cl)c3)cs2)cc1)S(=O)(=O)NC(C)(C)C [Compound F-2] | 144 nM
CC(=Cc1ccc(C(=O)Nc2nc(-c3ccc(Cl)c(Cl)c3)cs2)cc1)S(N)(=O)=O [Compound F-3] | 198 nM
COC(=O)CCc1ccc(C(=O)Nc2nc(-c3ccc(Cl)c(Cl)c3)cs2)cc1 [Compound G-1] | 261 nM
O=C(O)CCc1ccc(C(=O)Nc2nc(-c3ccc(Cl)c(Cl)c3)cs2)cc1 [Compound G-2] | 299 nM

Second part, the molecule after the results:

EC50 | Structure (SMILES)
205 nM | O=C(O)/C(Cl)=C/c1ccc(C(=O)Nc2nc(-c3ccc(OC(F)(F)F)cc3)cs2)cc1 [Compound A-76]
110 nM | O=C(O)/C(Cl)=C/c1ccc(C(=O)Nc2nc(-c3cc(F)c(F)c(F)c3F)cs2)cc1 [Compound A-77]
408 nM | CSc1ccc(-c2csc(NC(=O)c3ccc(/C=C(\Cl)C(=O)O)cc3)n2)cc1 [Compound A-78]
410 nM | O=C(O)/C(Cl)=C/c1ccc(C(=O)Nc2nc(-c3cc(C(F)(F)F)ccc3F)cs2)cc1 [Compound A-79]
66 nM | O=C(O)/C(Cl)=C/c1ccc(C(=O)Nc2nc(-c3cccc(-c4ccccc4)c3F)cs2)cc1 [Compound A-80]
71 nM | O=C(O)/C(Cl)=C/c1ccc(C(=O)Nc2nc(-c3cccc(Br)c3F)cs2)cc1 [Compound A-81]
199 nM | COc1cccc(-c2csc(NC(=O)c3ccc(/C=C(\Cl)C(=O)O)cc3)n2)c1F [Compound A-82]
77 nM | Cc1cccc(-c2csc(NC(=O)c3ccc(/C=C(\Cl)C(=O)O)cc3)n2)c1F [Compound A-83]
23 nM | CCCCCc1cccc(-c2csc(NC(=O)c3ccc(/C=C(\Cl)C(=O)O)cc3)n2)c1F [Compound A-84]
243 nM | O=C(O)/C(Cl)=C/c1ccc(C(=O)Nc2nc(-c3ccc(F)c(Br)c3F)cs2)cc1 [Compound A-86]
710 nM | Cc1ccc(C)c(-c2csc(NC(=O)c3ccc(/C=C(\Cl)C(=O)O)cc3)n2)c1 [Compound A-87]
28 nM | O=C(O)/C(Cl)=C/c1ccc(C(=O)Nc2nc(-c3cccc(-c4ccc(F)cc4)c3F)cs2)cc1 [Compound A-88]
72 nM | O=C(O)/C(Cl)=C/c1ccc(C(=O)Nc2nc(-c3ccc(F)c(-c4ccccc4)c3F)cs2)cc1 [Compound A-89]
76 nM | O=C(O)/C(Cl)=C/c1ccc(C(=O)Nc2nc(-c3cccc(Cl)c3Cl)cs2)cc1 [Compound A-91]
8 nM | CCCCCCc1cccc(-c2csc(NC(=O)c3ccc(/C=C(\Cl)C(=O)O)cc3)n2)c1F [Compound A-93]
156 nM | CNC(=O)/C=C/c1ccc(C(=O)Nc2nc(-c3ccc(Cl)c(Cl)c3)cs2)cc1 [Compound B-3]
89 nM | CNC(=O)C(C)=Cc1ccc(C(=O)Nc2nc(-c3ccc(Cl)c(Cl)c3)cs2)cc1 [Compound B-4]
123 nM | CC(=Cc1ccc(C(=O)Nc2nc(-c3ccc(Cl)c(Cl)c3)cs2)cc1)C(=O)N(C)C [Compound B-5]
84 nM | CCNC(=O)C(C)=Cc1ccc(C(=O)Nc2nc(-c3ccc(Cl)c(Cl)c3)cs2)cc1 [Compound B-6]
244 nM | CC/C(=C\c1ccc(C(=O)Nc2nc(-c3ccc(Cl)c(Cl)c3)cs2)cc1)C(N)=O [Compound B-17]
150 nM | CC/C(=C\c1ccc(C(=O)Nc2nc(-c3ccc(Cl)c(Cl)c3)cs2)cc1)C(=O)NC [Compound B-18]
367 nM | C/C(=C\c1ccc(C(=O)Nc2nc(-c3ccc(F)c(F)c3)cs2)cc1)C(N)=O [Compound B-25]
346 nM | CNC(=O)/C(C)=C/c1ccc(C(=O)Nc2nc(-c3ccc(F)c(F)c3)cs2)cc1 [Compound B-26]
565 nM | C/C(=C\c1ccc(C(=O)Nc2nc(-c3ccc(Cl)c(Cl)c3)cs2)cc1)C(=O)NCCC(=O)O [Compound B-28]
178 nM | C/C(=C\c1ccc(C(=O)Nc2nc(-c3ccc(Cl)c(Cl)c3)cs2)cc1)C(=O)NCC(F)(F)F [Compound B-31]
163 nM | C/C(=C\c1ccc(C(=O)Nc2nc(-c3ccc(Cl)c(Cl)c3)cs2)cc1)C(=O)NC1CC1 [Compound B-36]
303 nM | CC(=O)NNC(=O)/C(C)=C/c1ccc(C(=O)Nc2nc(-c3ccc(Cl)c(Cl)c3)cs2)cc1 [Compound B-43]
213 nM | CONC(=O)/C(C)=C/c1ccc(C(=O)Nc2nc(-c3ccc(Cl)c(Cl)c3)cs2)cc1 [Compound B-46]
922 nM | O=C(O)C(Br)=Cc1ccc(C(=O)Nc2nc(-c3ccc(Cl)c(Cl)c3)cs2)cc1 [Compound C-4]
